Reference: patent publication US20260258039A1, “AROMATIC COMPOUND, METHOD FOR PREPARING SAME, AND USE THEREOF IN PREPARATION OF ESTROGEN RECEPTOR DEGRADER” (Hinova Pharmaceuticals Inc., priority 2022, published 2026)
Like-named read-outs stand apart in the source and are kept apart here.

Key:
[1] = system: MCF-7 breast cancer cells; test: Inhibition of proliferation of MCF-7 breast cancer cells (agarose culture, CellTiter-Glo 3D); format: cell-based
Method: After 1.6% agarose and 0.7% agarose were sterilized at high temperature, they were cooled to around 50° C., and placed in a 42° C. water bath for later use. MCF-7 breast cancer cells were subcultured in complete cell culture medium, and cells in good growth condition were digested and counted for future use. 50 µL of 1.6% agarose mixed with 2× culture medium at a ratio of 1:1 was spread into the bottom of 96-well plate, and allowed to cool and solidify. 0.7% agarose was mixed with diluted cell suspension in a ratio of 1:1, and then 50 µL of the mixture of gel and cells was added to each well, with 2000 cells for each well; the mixture was allowed to cool and solidify at room temperature. 50 μL of culture medium was added to the plate containing cells, and the plate was placed in a 37° C., 5% CO2 incubator and cultured for 24 h. The drug was prepared into 10 mM stock solution with dimethyl sulfoxide (DMSO). The stock solution was diluted in a ratio of 1:3, to obtain 9 concentration gradients. Then, each concentration of compound solution was further diluted with culture medium in 1:250 (to ensure a DMSO concentration of 0.1% in the culture system). Two replicate wells was set for each concentration. 50 μL of the diluted compound solution was added to the cell culture wells (with final concentrations of 10 μM, 3.3 μM, 1.1 μM, 0.37 μM . . . ). The plate was gently shaken for mixing. Additionally, 3 negative control wells only containing cells and 3 blank control wells only containing culture medium were set up (each of the 6 wells was added with 50 μL of DMSO diluted with culture medium in a ration of 1:250). After 15 days of cultivation, the cell plates and CellTiter-Glo 3D Cell Viability were taken out and equilibrated to room temperature in advance. 80 μL of culture medium were aspirated and discarded from the cell plate, and 120 µL of CellTiter-Glo 3D Cell Viability solution was added to each well. The plates were centrifuged at 1200 rpm/min for 5 min, and then placed in the dark and kept for 25 min. The […] were measured using a multi-function microplate reader. The data were analyzed using the Dose-response-inhibition equation in GraphPad Prism8 software, and the IC50 values were obtained, as shown in Table 3.

ER = biological target: T1, ER (Homo sapiens, UniProt P03372); test: Degradation activities on ER (ELISA) in T47D breast cancer cells; format: cell-based; conditions: for DC50: concentration required to degrade 50% of the target protein
T1 construct: T47D breast cancer cells were subcultured in cell culture medium; endogenous in cells; host or cells: T47D breast cancer cells
T1 sequence (P03372 1-595): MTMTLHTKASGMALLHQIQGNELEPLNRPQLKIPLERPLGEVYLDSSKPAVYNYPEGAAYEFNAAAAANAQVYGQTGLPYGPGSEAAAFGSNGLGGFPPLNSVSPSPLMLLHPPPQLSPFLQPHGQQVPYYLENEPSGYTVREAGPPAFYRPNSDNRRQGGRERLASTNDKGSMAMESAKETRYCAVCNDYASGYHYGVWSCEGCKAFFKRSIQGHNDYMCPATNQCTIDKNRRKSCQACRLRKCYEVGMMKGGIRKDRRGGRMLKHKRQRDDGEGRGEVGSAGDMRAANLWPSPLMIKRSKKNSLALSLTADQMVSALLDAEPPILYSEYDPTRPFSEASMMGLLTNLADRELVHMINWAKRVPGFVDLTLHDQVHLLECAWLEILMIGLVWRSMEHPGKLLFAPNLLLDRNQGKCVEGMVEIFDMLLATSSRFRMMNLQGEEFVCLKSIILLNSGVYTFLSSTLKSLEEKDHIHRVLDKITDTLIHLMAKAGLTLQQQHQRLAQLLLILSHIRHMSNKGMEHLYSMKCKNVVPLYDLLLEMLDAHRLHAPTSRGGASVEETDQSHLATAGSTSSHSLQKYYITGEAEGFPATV
Method: T47D breast cancer cells were subcultured in cell culture medium, and then the cells in good growth condition were seeded into 96-well plates at 80 µL/well, with 2.5×10^4 cells per well. The cells were incubated in a 37° C., 5% CO2 incubator for 3 days. The drug was prepared into a 10 mM stock solution with dimethyl sulfoxide (DMSO). Prior to use, the stock solution was diluted with cell culture medium to obtain six final concentrations (100 nM, 25 nM, 6.25 nM, 1.56 nM, 0.39 nM, and […]), and gently mixed. Additionally, negative control wells (only containing culture medium) and positive control wells (only containing cells and DMSO) were included. After the cells were incubated in the incubator for 24 h, the cells were rinsed once with ice-cold 1×PBS. […] The plate was sealed with plastic film, and incubated in a 37° C. incubator for 2 h. The film was removed. 200 μL of 1× washing buffer was added to each well, and then the plate was shaken for 5 min. The washing buffer was discarded, and the plate was pat-dried. The plate was washed four times. 100 μL of freshly prepared detection antibody (green) was added to each well of the ELISA plate. The plate was sealed with plastic film, and then incubated in a 37° C. incubator for 1 h. The film was removed, and the detection antibody was discarded. The plate was pat-dried. 200 μL of 1× washing buffer was added to each well, and then the plate was shaken for 5 min. The washing buffer was discarded, and the plate was pat-dried. The plate was washed four times. 100 μL of freshly prepared HRP-labeled secondary antibody (red) was added to each well of the ELISA plate. The plate was sealed with plastic film, and incubated in a 37° C. incubator for 30 min. The film was removed, the secondary antibody was discarded, and the plate was pat-dried, followed by adding 200 μL of 1× washing buffer to each well. The plate was shaken for 5 min, and the washing buffer was discarded before pat-drying the plate. The plate was washed four times. 100 μl of TMB substrate was added to each well of the ELISA plate, followed by incubating in a 37° C. incubator for 5 min. 100 μL of STOP solution was added to each well of the ELISA plate, and the plate was gently shaken for a few seconds. The bottom of each well was wiped with lint-free cloth. Within 30 min after adding the STOP solution, the absorbance was read at 450 nm. […] The data were analyzed using the Dose-response equation in GraphPad Prism8 software to obtain the DC50 and Dmax values, and both of them are important indicators for measuring the degradation activities of compounds on target proteins. […] The Dmax value represents the maximum percentage of target protein that can be degraded by the compound.

[2] = Homo sapiens, MCF7, 360 h, MCF-7 cells, 15 days of cultivation, read-out: IC50
[3] = T47D cells, 24 h, ELISA, maximum percentage of target protein degraded, read-out: Dmax

O=C1CCC(N2Cc3cc(N4CC5(CCN(CC6CCN(c7ccc([C@@H]8c9ccc(B(O)O)cc9OC[C@@H]8c8ccccc8F)cc7)CC6)CC5)C4)ccc3C2=O)C(=O)N1 (stereo partly drawn) [Example 101, (cis-4-(4-(4-((2-(2-(2,6-dioxopiperidin-3-yl)-1-oxoisoinodolin-5-yl)-2,7-diazaspiro[3.5]nonan-7-yl)methyl)piperidin-1-yl)phenyl)-3-(2-fluorophenyl)pyran-7-yl)boric acid]
IC50 [1, 2]: 11 to 50 nM

O=C1CCC(N2Cc3cc(N4CC5(CCN(CC6CCN(c7c(F)cc([C@@H]8c9ccc(O)cc9OC[C@@H]8c8ccccc8F)cc7F)CC6)CC5)C4)ccc3C2=O)C(=O)N1 (stereo partly drawn) [Example 50, 3-(5-(7-((1-(4-((3S,4R)-3-(2-fluorophenyl)-7-hydroxychroman-4-yl)-2,6-difluorophenyl)piperidin-4-yl)methyl)-2,7-diazaspiro[3.5]nonane-2-yl)-1-oxoisoinodolin-2-yl)piperidin-2,6-one]
IC50 ([1]; MCF-7 cells, 15 days of cultivation, read-out: IC50): < 10 nM
DC50 (ER; T47D cells, 24 h, ELISA): < 10 nM

O=C1CCC(N2Cc3cc(N4CC5(CCN(CC6CCN(c7ccc(C8=C(c9c(F)cccc9F)COc9cc(O)ccc98)cc7F)CC6)CC5)C4)ccc3C2=O)C(=O)N1 (stereo not shown) [Example 76, 3-(5-(7-((1-(4-(3-(2,6-difluorophenyl)-7-hydroxyl-2H-chromene-4-yl)-2-fluorophenyl)piperidin-4-yl)methyl)-2,7-diazaspiro[3.5]nonane-2-yl)-1-oxoisoinodolin-2-yl)piperidin-6-dione]
IC50 [1, 2]: < 10 nM
DC50 (ER; T47D cells, 24 h, ELISA): < 10 nM
Dmax (ER; [3]): > 75%

O=C1CCC(N2Cc3cc(N4CC5(CCN(CC6CCN(c7ccc([C@@H]8c9ccc(O)cc9OC[C@@H]8c8cccc(F)c8)cc7)CC6)CC5)C4)ccc3C2=O)C(=O)N1 (stereo partly drawn) [Example 60, 3-(5-(7-((1-(4-((3,4-cis)-3-(3-fluorophenyl)-7-hydroxyl-chroman-4-yl)phenyl)piperidin-4-yl)methyl)-2,7-diazaspiro[3.5]nonane-2-yl)-1-oxoisoindol-2-yl)piperidin-2,6-dione]
IC50 ([1]; Homo sapiens, MCF7, 360 h): < 10 nM
Dmax (ER; T47D): 50 to 75%
DC50 (ER; T47D cells, 24 h, ELISA): < 10 nM

O=C1CC[C@H](N2Cc3cc(N4CC5(CCN(CC6CCN(c7ccc([C@@H]8c9ccc(O)cc9OC[C@@H]8c8c(F)cccc8F)cc7F)CC6)CC5)C4)ccc3C2=O)C(=O)N1 [Example 75, (S)-3-(5-(7-((1-(4-((3S,4R)-3-(2,6-difluorophenyl)-7-hydroxychroman-4-yl)-2-fluorophenyl)piperidin-4-yl)methyl)-2,7-diazaspiro[3.5]nonane-2-yl)-1-oxoisoinodolin-2-yl)piperidin-2,6-dione]
IC50 [1, 2]: < 10 nM
DC50 (ER; T47D cells, 24 h, ELISA): < 10 nM
Dmax (ER; [3]): > 75%

O=C1CCC(N2Cc3cc(N4CCC(N5CC6(CCN(c7ccc([C@@H]8c9ccc(O)cc9OC[C@@H]8c8ccccc8F)cc7)CC6)C5)CC4)ccc3C2=O)C(=O)N1 (stereo partly drawn) [Example 14, 3-(5-(4-(7-(4-((3S, 4R)-3-(2-fluorophenyl)-7-hydroxychroman-4-yl)phenyl)-2,7-diazaspiro[3.5]nonane-2-yl)piperidin-1-yl)-1-oxoisoinodolin-2-yl)pyridine-2,6-dione]
IC50 [1, 2]: < 10 nM
DC50 (ER; T47D cells, 24 h, ELISA): < 10 nM
Dmax (ER; [3]): > 75%

O=C1CC[C@H](N2Cc3cc(N4CC5(CCN(CC6CCN(c7c(F)cc([C@@H]8c9ccc(O)cc9OC[C@@H]8c8c(F)cccc8F)cc7F)CC6)CC5)C4)ccc3C2=O)C(=O)N1 [Example 45]
IC50 [1, 2]: < 10 nM
DC50 (ER; T47D cells, 24 h, ELISA): < 10 nM
Dmax (ER; [3]): > 75%

O=C1CCC(N2Cc3cc(N4CC5(CCN(CC6CCN(c7ccc([C@@H]8c9ccc(O)cc9OC[C@@H]8c8ccc(F)cc8)cc7)CC6)CC5)C4)ccc3C2=O)C(=O)N1 (stereo partly drawn) [Example 9, 3-(5-(7-((1-(4-(cis-3-(4-fluorophenyl)-7-hydroxyltryptophane-4-yl)phenyl)piperidin-4-yl)methyl)-2,7-diazaspiro[3.5]nonane-2-yl)-1-oxoisoinodolin-2-yl)piperidin-2,6-dione]
IC50 [1, 2]: 11 to 50 nM
DC50 (ER; T47D cells, 24 h, ELISA): < 10 nM
Dmax (ER; [3]): 50 to 75%

O=C1CCC(NC(=O)c2ccc(N3CC4(CCN(CC5CCN(c6ccc([C@@H]7c8ccc(O)cc8OC[C@@H]7c7ccccc7F)cc6)CC5)CC4)C3)cc2F)C(=O)N1 (relative stereo) [Example 103, N-(2,6-dioxopiperidin-3-yl)-2-fluoro-4-(7-((1-(4-(cis-3-(2-fluorophenyl)-7-hydroxychroman-4-yl)phenyl)piperidin-4-yl)methyl)-2,7-diazaspiro[3.5]nonane-2-yl)benzamide]
IC50 [1, 2]: > 50 nM

[2H]C1(N2Cc3cc(N4CC5(CCN(CC6CCN(c7ccc([C@@H]8c9ccc(O)cc9OC[C@@H]8c8c(F)cccc8F)cc7F)CC6)CC5)C4)ccc3C2=O)CCC(=O)NC1=O (stereo partly drawn) [Example 93, 3-deutero-3-(5-(7-((1-(4-((3S,4R)-3-(2,6-difluorophenyl)-7-hydroxychroman-4-yl)-2-fluorophenyl)piperidin-4-yl)methyl)-2,7-diazaspiro[3.5]nonane-2-yl)-1-oxoisoinodolin-2-yl)piperidin-2,6-dione]
IC50 [1, 2]: 11 to 50 nM

O=C1CCC(N2Cc3cc(N4CC5(CCN(CC6CCN(c7ccc([C@@H]8c9ccc(C(=O)O)cc9OC[C@@H]8c8ccccc8F)cc7)CC6)CC5)C4)ccc3C2=O)C(=O)N1 (stereo partly drawn) [Example 102, cis-4-(4-(4-((2-(2-(2,6-dioxopiperidin-3-yl)-1-oxoisoinodolin-5-yl)-2,7-diazaspiro[3.5]nonan-7-yl)methyl)piperidin-1-yl)phenyl)-3-(2-fluorophenyl)chroman-7-formic acid]
IC50 [1, 2]: > 50 nM

O=C1CC[C@H](N2Cc3cc(N4CC5(CCN(CC6CCN(c7ccc([C@@H]8c9ccc(O)cc9OC[C@@H]8c8c(F)cccc8F)cc7)CC6)CC5)C4)ccc3C2=O)C(=O)N1 [Example 78, (S)-3-(6-(7-((1-(4-((3S,4R)-3-(2,6-difluorophenyl)-7-hydroxychroman-4-yl)phenyl)piperidin-4-yl)methyl)-2,7-diazaspiro[3.5]nonane-2-yl)-1-oxoisoinodolin-2-yl)piperidin-2,6-dione]
IC50 [1, 2]: < 10 nM
